These results are taken from patent EP0021836A1, “Clavulanic acid derivatives, process for their preparation and pharmaceutical compositions containing them” (BEECHAM GROUP PLC, priority 1979, dated 1981).

In one assay the test system is Kleb E70. The experiment in a line: standard MIC test (synergistic and antibacterial properties). Format: cell-based. Conditions: substance alone; Kleb E70 (printed Kleb Eto in the 1st table); unit assumed.
The next assay relates to E.coli JT39. The assay is described as above. Conditions: substance alone, unit assumed. Format: cell-based.
For another assay, the system named is Staph Russell. The description is as above. Conditions: substance alone, in µg/mL (unit assumed). Type of assay: cell-based.
The subject of the next assay is E. coli strain E96. The experiment in a line: in-vivo subcutaneous synergistic activity with amoxycillin against intraperitoneal infection in mice. The settings on record: Escherichia coli, sc, amoxycillin alone, read-out: CD50 (the source's name).
In another assay the test system is E. coli strain E124. Described as above. The settings on record: Escherichia coli, sc, amoxycillin alone, read-out: CD50 (the source's name).

Values joined by “and” are separate entries in the source; they are usually repeats but may differ in a detail not shown here. Identical values can stand only once. A value given as a limit tells only on which side of the number the result lay.

With `CC(C)NCC=C1OC2CC(=O)N2C1C(=O)O` (stereo not shown) [Example 1, 9-N-Isopropylaminodeoxyclavulanic acid], the results for the MIC in the assay with Kleb E70, in the assay with E.coli JT39 and in the assay on Staph Russell were 500 µg/mL, 31.2 µg/mL and 8, respectively.

Consider `CC1(C)S[C@@H]2[C@H](NC(=O)[C@H](N)c3ccc(O)cc3)C(=O)N2[C@H]1C(=O)O` [Amoxycillin], for which the ED50 in the assay on E. coli strain E96 and with E. coli strain E124 was above 1000 mg/kg throughout.

Consider `O=C(O)C1C(=CCNC2CCCCC2)OC2CC(=O)N21` (stereo not shown) [Example 3, 9-N-Cyclohexylaminodeoxyclavulanic acid], for which the MIC was determined as 500 µg/mL in the assay on Kleb E70, 62.5 µg/mL in the assay on E.coli JT39 and 8.0 with Staph Russell.

For the compound `O=C(O)C1C(=CCNC2CCCC2)OC2CC(=O)N21` (stereo not shown) [Example 2, 9-N-Cyclopentylaminodeoxyclavulanic acid], the MIC is above 500 µg/mL with Kleb E70, 31.2 µg/mL in the assay on E.coli JT39 and 16 in the assay on Staph Russell.

As for `O=C(O)[C@H]1/C(=C/CO)O[C@@H]2CC(=O)N21` [Clavulanic acid], the MIC in the assay with E.coli JT39 was 16 µg/mL; in the assay with Staph Russell, 16 and 31.2.
